Like-named read-outs stand apart in the source and are kept apart here.
How the values were obtained:
[1] = target: T1, kinase enzymes (Homo sapiens, UniProt P48736); experiment: Enzyme binding assay (KINOMEscan, DiscoveRx), further kinases of Table A; settings: PIK3Cγ_h
T1 construct: purchased DiscoveRx Corporation, San Diego (contract service, KINOMEscan)
How it was run: (§1)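 Compounds were profiled by KINOMEscan to obtain kinase binding affinities.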

[2] = target: T2, kinase enzymes (Homo sapiens, UniProt P42345); experiment: as above; settings: MTOR_h
T2 construct: purchased DiscoveRx Corporation, San Diego (contract service, KINOMEscan)
How it was run: as §1

[3] = target: T3, kinase enzymes (Homo sapiens, UniProt P42336); experiment: as above; settings: PIK3Cα_h
T3 construct: purchased DiscoveRx Corporation, San Diego (contract service, KINOMEscan)
T3 sequence (P42336 whole entry): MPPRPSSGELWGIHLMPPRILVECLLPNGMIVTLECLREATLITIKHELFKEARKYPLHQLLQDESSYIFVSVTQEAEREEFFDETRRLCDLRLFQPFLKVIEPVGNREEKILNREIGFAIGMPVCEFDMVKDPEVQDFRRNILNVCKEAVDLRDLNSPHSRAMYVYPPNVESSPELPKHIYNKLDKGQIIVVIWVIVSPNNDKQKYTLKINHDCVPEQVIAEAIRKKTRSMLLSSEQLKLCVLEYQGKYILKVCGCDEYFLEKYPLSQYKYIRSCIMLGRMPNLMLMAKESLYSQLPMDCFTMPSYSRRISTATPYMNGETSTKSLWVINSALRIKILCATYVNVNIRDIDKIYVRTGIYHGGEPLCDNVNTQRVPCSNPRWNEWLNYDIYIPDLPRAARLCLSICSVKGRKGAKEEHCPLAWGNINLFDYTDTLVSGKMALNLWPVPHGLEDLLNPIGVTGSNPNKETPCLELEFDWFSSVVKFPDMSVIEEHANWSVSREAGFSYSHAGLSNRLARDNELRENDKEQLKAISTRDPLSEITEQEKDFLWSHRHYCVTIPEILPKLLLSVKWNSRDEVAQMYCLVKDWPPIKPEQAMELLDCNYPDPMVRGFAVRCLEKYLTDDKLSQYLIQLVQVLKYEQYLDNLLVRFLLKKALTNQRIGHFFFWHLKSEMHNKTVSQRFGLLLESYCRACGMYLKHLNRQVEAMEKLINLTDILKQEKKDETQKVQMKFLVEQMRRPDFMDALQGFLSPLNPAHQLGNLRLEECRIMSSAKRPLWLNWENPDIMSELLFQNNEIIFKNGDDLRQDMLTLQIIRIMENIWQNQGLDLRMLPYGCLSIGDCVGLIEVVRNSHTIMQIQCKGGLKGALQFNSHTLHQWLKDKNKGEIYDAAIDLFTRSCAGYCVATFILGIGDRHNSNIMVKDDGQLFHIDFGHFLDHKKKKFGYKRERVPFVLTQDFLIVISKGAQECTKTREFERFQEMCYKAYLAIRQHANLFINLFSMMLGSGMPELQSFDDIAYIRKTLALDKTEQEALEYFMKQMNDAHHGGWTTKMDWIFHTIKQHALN
How it was run: as §1

[4] = test system: Akt phosphorylated at Ser473 in PC-3 cells; experiment: Cellular assay: phosphorylation of Akt at Ser473 in PC-3 cells (MSD ELISA); format: cell-based; settings: PC-3 cells, 60 min compound incubation, MSD ELISA, read-out: IC50 pAkt_S473
How it was run: (§2)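 Electrochemiluminescent sandwich ELISA read-out: phospho-specific capture (Ser473 or Thr308), Sulfo-tag anti-total Akt detection, signal proportional to phospho-Akt. Cells treated 60 min at 37° C with compound, DMSO 0.3%. IC50 fitted from five concentrations.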

[5] = target: T4, PI3Kβ (Homo sapiens, UniProt P42338); experiment: Enzyme binding assay (KINOMEscan, DiscoveRx); settings: PIK3Cβ_h, read-out: Kd PIK3Cβ_h
T4 construct: purchased DiscoveRx Corporation, San Diego (contract service, KINOMEscan)
T4 sequence (P42338 whole entry): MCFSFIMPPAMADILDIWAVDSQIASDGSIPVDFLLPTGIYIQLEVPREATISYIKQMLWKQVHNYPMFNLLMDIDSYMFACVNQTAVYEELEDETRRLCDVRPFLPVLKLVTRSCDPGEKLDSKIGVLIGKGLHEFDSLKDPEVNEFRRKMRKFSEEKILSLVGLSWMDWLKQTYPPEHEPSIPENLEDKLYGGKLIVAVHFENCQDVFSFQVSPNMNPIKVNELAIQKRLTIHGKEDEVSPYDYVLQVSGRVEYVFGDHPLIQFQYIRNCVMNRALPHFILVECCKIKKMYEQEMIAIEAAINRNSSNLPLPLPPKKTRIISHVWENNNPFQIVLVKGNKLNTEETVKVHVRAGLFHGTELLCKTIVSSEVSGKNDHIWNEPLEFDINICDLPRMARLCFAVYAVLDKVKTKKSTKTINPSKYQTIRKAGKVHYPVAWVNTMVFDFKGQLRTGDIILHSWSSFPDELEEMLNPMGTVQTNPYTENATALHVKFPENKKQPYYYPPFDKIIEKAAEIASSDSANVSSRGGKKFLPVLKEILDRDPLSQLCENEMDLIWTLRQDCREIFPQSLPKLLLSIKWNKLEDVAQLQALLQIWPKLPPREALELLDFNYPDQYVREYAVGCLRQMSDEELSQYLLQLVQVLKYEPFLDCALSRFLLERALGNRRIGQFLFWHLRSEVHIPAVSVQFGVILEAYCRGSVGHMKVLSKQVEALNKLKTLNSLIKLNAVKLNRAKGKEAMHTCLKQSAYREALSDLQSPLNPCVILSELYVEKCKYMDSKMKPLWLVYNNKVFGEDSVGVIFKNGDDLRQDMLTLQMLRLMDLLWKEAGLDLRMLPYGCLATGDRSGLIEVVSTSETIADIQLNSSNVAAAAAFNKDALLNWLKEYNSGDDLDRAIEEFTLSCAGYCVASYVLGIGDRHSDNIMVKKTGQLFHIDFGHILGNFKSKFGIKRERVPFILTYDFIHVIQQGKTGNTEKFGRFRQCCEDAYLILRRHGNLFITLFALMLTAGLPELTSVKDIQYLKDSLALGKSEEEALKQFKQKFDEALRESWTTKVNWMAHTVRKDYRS
How it was run: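 Compounds are profiled for binding to the kinase using KINOMEscan. The affinity is then reported as an inhibitor Kd in nanomolar units.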

[6] = target: T5, PI3Kδ (Homo sapiens, UniProt O00329); experiment: Enzyme binding assay (KINOMEscan, DiscoveRx); settings: PIK3Cδ_h
T5 construct: purchased DiscoveRx Corporation, San Diego (contract service, KINOMEscan)
T5 sequence (O00329 1-1044): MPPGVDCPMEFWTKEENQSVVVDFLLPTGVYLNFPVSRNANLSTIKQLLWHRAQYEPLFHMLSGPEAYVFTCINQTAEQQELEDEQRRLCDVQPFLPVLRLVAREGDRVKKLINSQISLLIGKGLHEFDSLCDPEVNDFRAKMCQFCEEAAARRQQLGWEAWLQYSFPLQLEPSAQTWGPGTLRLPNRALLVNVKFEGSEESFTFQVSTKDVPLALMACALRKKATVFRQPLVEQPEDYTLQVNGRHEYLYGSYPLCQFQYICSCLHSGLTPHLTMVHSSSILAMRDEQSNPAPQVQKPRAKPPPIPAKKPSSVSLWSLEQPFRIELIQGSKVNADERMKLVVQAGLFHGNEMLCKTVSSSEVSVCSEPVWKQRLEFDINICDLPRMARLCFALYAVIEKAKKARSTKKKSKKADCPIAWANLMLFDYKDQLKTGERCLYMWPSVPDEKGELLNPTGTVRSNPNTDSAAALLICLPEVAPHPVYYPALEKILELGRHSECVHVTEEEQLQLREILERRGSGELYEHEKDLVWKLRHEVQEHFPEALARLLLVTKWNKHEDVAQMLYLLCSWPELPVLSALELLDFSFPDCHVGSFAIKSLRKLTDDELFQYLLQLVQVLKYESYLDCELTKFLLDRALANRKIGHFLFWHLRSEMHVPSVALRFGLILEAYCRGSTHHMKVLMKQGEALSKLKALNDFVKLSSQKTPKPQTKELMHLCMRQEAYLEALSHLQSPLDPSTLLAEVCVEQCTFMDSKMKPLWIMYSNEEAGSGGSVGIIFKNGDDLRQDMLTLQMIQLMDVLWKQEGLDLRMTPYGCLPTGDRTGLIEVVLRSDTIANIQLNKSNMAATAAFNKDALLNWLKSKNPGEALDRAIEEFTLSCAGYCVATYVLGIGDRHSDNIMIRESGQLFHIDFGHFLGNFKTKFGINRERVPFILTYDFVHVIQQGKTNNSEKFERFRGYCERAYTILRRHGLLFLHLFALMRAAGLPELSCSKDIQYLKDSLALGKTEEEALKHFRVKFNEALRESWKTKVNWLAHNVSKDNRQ
How it was run: as §1

[7] = test system: Akt phosphorylated at Thr308 in PC-3 cells; experiment: Cellular assay: phosphorylation of Akt at Thr308 in PC-3 cells (MSD ELISA); format: cell-based; settings: PC-3 cells, 60 min compound incubation, MSD ELISA, read-out: IC50 pAkt_Thr308
How it was run: as §2

T1 sequence (P48736 whole entry): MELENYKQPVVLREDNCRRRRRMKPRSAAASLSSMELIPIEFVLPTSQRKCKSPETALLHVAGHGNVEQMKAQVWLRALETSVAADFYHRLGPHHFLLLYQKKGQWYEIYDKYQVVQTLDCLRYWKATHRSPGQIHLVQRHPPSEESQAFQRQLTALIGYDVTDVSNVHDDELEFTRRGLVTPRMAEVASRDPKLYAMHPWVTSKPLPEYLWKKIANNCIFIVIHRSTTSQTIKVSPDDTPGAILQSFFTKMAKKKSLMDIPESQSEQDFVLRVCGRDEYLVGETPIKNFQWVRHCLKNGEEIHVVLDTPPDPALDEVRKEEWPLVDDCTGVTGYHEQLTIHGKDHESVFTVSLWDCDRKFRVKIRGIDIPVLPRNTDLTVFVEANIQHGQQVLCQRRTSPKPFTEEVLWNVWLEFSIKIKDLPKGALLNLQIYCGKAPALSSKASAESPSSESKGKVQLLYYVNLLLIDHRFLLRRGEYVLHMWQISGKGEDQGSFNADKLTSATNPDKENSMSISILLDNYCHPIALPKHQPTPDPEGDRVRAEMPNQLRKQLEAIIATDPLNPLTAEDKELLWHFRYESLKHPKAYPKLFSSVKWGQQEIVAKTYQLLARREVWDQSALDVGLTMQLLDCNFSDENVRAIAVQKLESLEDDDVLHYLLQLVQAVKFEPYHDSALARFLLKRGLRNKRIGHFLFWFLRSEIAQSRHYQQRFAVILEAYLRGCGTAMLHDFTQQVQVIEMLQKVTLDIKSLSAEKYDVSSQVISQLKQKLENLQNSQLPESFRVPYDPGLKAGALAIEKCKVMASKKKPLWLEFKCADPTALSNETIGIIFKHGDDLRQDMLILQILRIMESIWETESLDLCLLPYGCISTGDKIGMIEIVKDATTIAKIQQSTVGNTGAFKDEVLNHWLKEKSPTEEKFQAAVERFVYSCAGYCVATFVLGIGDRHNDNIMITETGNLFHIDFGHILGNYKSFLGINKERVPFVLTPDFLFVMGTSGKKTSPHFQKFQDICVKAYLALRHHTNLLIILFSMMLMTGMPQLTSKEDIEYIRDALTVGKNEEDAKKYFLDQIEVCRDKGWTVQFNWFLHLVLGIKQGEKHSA

SMILES | Kd [1] [nM] | Kd [2] [nM] | Kd [3] [nM] | IC50 ([4]; Homo sapiens, PC-3, 1 h) [nM] | Kd [5] [nM] | Kd [6] [nM] | IC50 ([7]; Homo sapiens, PC-3, 1 h) [nM] | IC50 [4] [nM] | IC50 [7] [nM]
COC(=O)c1cc(C(C)Nc2cc(F)cc(Cl)c2)c2nc(N3CCOCC3)cnc2c1 (centres unmarked) [Compound 99] | 11500 | > 30200 | 9770 | > 513 | 52 | 4680 | 355 | – | –
CC(Nc1cccc(F)c1)c1cc(CO)cc2ncc(N3CCOCC3)nc12 (centres unmarked) [Compound 100] | 1740 | 14100 | 1290 | 145 | 1 | 295 | 68 | – | –
CNCCNC(=O)c1cc([C@@H](C)Oc2cccc(F)c2)c2nc(N3CCOCC3)cnc2c1 [Compound 122] | 5620 | 25700 | 2880 | – | 0.3 | 151 | – | 40 | 26
CNCCNC(=O)c1cc([C@H](C)Oc2cccc(F)c2)c2nc(N3CCOCC3)cnc2c1 [Compound 123] | 12600 | 16600 | 9330 | > 513 | 91 | 2240 | > 513 | – | –
CC(c1cc(C(=O)N(C)C)cc2ncc(N3CCOCC3)nc12)N(C)c1cccc(Cl)c1 (centres unmarked) [Compound 141] | 8130 | > 30200 | 6610 | 182 | 6 | 776 | 102 | – | –
CC(Nc1cc(F)cc(F)c1)c1cc(C(=O)N2CC3(C2)CS(=O)(=O)C3)cc2ncc(N3CCOCC3)nc12 (centres unmarked) [Compound 148] | 8130 | > 30200 | 1070 | 68 | 1 | 316 | 30 | – | –
CNCC1CCN(C(=O)c2cc(C(C)Nc3cc(F)cc(F)c3)c3nc(N4CCOCC4)cnc3c2)CC1 (centres unmarked) [Compound 176] | 3470 | > 30200 | 2000 | 16 | 1 | 102 | 15 | – | –
CC(Nc1cc(F)cc(F)c1)c1cc(C(=O)N2CCC(NCC(F)(F)F)C2)cc2ncc(N3CCOCC3)nc12 (centres unmarked) [Compound 217] | 24000 | > 30200 | 2140 | 79 | 4 | 1290 | 49 | – | –
CC(Nc1cc(F)cc(F)c1)c1cc(C(=O)NS(=O)(=O)C2CC2)cc2ncc(N3CCOCC3)nc12 (centres unmarked) [Compound 218] | 3090 | 3310 | 537 | > 513 | 5 | 1170 | > 513 | – | –
O=C(NCCO)c1cc(NCc2cc(F)cc(F)c2)c2nc(N3CCOCC3)cnc2c1 [Compound 229] | 20400 | 12600 | 3890 | 186 | 7 | 1740 | 96 | – | –
Cc1c(CNc2cc(C(=O)NCCO)cc3ncc(N4CCOCC4)nc23)cccc1C(F)(F)F [Compound 231] | > 30200 | > 10000 | 17000 | ~457 | 52 | > 3310 | 398 | – | –
COC(=O)c1cc(C(C)Nc2cc(F)cc(F)c2)c2nc(N3CCOCC3)cnc2c1 (centres unmarked) [Compound 235] | 24500 | > 32000 | > 32000 | 214 | 50 | 7590 | 79 | – | –
CC(Nc1cc(F)cc(F)c1)c1cc(C(=O)O)cc2ncc(N3CCOCC3)nc12 (centres unmarked) [Compound 236] | 813 | 1320 | 112 | > 513 | 2 | 158 | > 513 | – | –
CC(Nc1cc(F)cc(F)c1)c1cc(C(=O)NS(N)(=O)=O)cc2ncc(N3CCOCC3)nc12 (centres unmarked) [Compound 243] | 145 | 1910 | 66 | > 513 | 1 | 71 | > 513 | – | –
COC(=O)[C@H]1CCCN1C(=O)c1cc(C(C)Nc2cc(F)cc(F)c2)c2nc(N3CCOCC3)cnc2c1 (some centres unmarked) [Compound 272] | > 30200 | > 30200 | 4900 | 151 | 5 | 2000 | ~85 | – | –
COC(=O)[C@@H]1CCCN1C(=O)c1cc(C(C)Nc2cc(F)cc(F)c2)c2nc(N3CCOCC3)cnc2c1 (some centres unmarked) [Compound 273] | > 10000 | > 30200 | 6310 | 447 | 8 | 2750 | ~257 | – | –
CC(Nc1cc(F)c(F)c(F)c1)c1cc(C(=O)N(C)C2CCNC2)cc2ncc(N3CCOCC3)nc12 (centres unmarked) [Compound 296] | 6460 | > 30200 | 2950 | 42 | 1 | 166 | 14 | – | –
CC(Nc1ccc(F)c(F)c1)c1cc(C(=O)NCCN(C)C)cc2ncc(N3CCOCC3)nc12 (centres unmarked) [Compound 299b] | 19500 | > 30200 | 13200 | – | 60 | 5250 | – | > 513 | > 513
CC(Nc1ccc(F)c(F)c1)c1cc(C(=O)N2CC[C@@H](O)C2)cc2ncc(N3CCOCC3)nc12 (some centres unmarked) [Compound 300] | 17000 | > 30200 | 2690 | 71 | 4 | 513 | 85 | – | –
CC(Nc1cc(F)cc(F)c1)c1cc(-c2cc[nH]n2)cc2ncc(N3CCOCC3)nc12 (centres unmarked) [Compound 304] | 20000 | > 30200 | 7240 | > 513 | 62 | 6760 | 295 | – | –
CN(Cc1cc(F)cc(F)c1)c1cc(C(=O)N2CCNC(C(F)(F)F)C2)cc2ncc(N3CCOCC3)nc12 (centres unmarked) [Compound 319b] | > 30200 | > 30200 | 4370 | > 513 | 59 | 1020 | > 513 | – | –
CN(C)C(=O)c1cc(CNc2cc(F)cc(F)c2)c2nc(N3CCOCC3)cnc2c1 [Compound 332] | 21400 | > 30200 | 2950 | ~316 | 15 | 4270 | 112 | – | –
CC(Nc1cccc(F)c1)c1cc(C(=O)NC[C@@H](C)O)cc2ncc(N3CCOCC3)nc12 (some centres unmarked) [Compound 338] | 4370 | > 30200 | 2340 | 275 | 12 | 2950 | 98 | – | –
CC(Nc1cc(F)cc(F)c1)c1cc(C(C)(C)O)cc2ncc(N3CCOCC3)nc12 (centres unmarked) [Compound 341] | 8130 | 21400 | 3390 | 46 | 17 | 1480 | 26 | – | –
CN[C@H]1CCN(C(=O)c2cc(NCc3cc(F)cc(F)c3)c3nc(N4CCOCC4)cnc3c2)C1 [Compound 352] | 9770 | > 30200 | 2290 | 14 | 2 | 1000 | 21 | – | –
Cc1c(F)cccc1CN(C)c1cc(C(=O)N(C)C)cc2ncc(N3CCOCC3)nc12 [Compound 354] | 28200 | > 30200 | 8130 | > 513 | 63 | 2400 | > 513 | – | –

Source: patent US10526316B2, “Quinoxaline and pyridopyrazine derivatives as PI3Kβ inhibitors” (Janssen Pharmaceutica NV, priority 2015, dated 2020)
